For orientation: IC50 means the concentration that gives 50% inhibition.

Molecules are shown by their SMILES. Structures can show the parent of a compound that is named as a salt.

One experiment deals with PARP-1 enzyme (Homo sapiens (Human), UniProt P09874). Description: Poly(ADP-ribose)polymerase [PARP-1] enzyme inhibitory activity (Trevigen PARP Assay kit). Type of experiment: biochemical.
Chain of PARP-1 enzyme (P09874 whole entry): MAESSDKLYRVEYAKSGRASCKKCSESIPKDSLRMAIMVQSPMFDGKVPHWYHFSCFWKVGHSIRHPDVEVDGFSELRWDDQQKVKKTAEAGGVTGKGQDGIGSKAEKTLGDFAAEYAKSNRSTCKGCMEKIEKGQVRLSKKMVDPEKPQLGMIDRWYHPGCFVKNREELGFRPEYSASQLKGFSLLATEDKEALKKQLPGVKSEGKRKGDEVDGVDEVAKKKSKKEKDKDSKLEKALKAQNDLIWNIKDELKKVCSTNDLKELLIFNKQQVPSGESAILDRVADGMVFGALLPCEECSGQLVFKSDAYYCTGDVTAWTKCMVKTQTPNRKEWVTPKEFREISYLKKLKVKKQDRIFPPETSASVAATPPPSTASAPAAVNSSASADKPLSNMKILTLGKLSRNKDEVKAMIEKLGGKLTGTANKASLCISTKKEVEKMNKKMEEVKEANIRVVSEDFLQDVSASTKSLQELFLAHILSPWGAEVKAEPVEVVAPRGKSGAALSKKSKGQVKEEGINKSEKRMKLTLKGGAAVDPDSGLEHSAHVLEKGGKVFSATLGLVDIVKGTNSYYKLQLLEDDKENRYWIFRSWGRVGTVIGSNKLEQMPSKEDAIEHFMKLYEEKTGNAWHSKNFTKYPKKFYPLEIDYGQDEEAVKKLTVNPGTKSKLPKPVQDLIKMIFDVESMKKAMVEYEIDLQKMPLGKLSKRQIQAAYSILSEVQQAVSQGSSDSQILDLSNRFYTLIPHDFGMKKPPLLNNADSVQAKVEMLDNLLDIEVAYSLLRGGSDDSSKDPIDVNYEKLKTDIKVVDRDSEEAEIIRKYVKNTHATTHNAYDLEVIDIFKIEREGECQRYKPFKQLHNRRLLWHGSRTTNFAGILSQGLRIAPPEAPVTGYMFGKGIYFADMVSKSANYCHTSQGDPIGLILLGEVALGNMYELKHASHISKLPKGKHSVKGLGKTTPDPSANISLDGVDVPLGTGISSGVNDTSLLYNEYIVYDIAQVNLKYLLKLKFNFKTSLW
Conditions: not given
On the procedure: The activity of the compounds according to the present invention to inhibit the PARP-1 enzyme was examined using a PARP Assay kit (4671-096-K) purchased from Trevigen. The assay was performed following a modified previously reported method by Lee et al [Methods Find, Exp. Clin. Pharmacol., 27, 617-622, 2005].
Histone was coated on 384-well plate, which is a small volume PS plate (784101) of Greiner Bio-One, and left at 25° C. for 2 hours. After that, the plate was rinsed four times with PBS (7.5 mM Na2HPO4, 2.5 mM NaH2PO4, 145 mM NaCl, pH 7.4), and in order to prevent non-specific reaction, the Strep-diluent (provided from kit of Trevigen) was added and left at 25° C. for one hour. After one hour, the plate was again rinsed with PBS four times, and the compounds of the Examples in various concentrations were put into reactant containing PARP-1 enzyme (0.12 unit/well), 2×PARP cocktail (1.95 mM NAD^+, 50 uM biotinylated NAD^+, and activated DNA in 50 mM Tris pH 8.0, 25 mM MgCl2) and allowed to react at 25° C. for 30 minutes. After 30 minutes, each well was rinsed with PBS four times, and in order to measure the amount of rybosylation by the PARP enzyme, strepavidin-linked peroxidase (Strep-HRP, 1:1000 diluted) was added and allowed to react at 37° C. for 30 minutes. The plate was rinsed with PBS four times, and TACS-Sapphire substrate was put and allowed to react at 25° C. for 10 minutes so that color reaction occurred. Finally, the reaction was terminated by the addition of 0.2 N HCl. The amount of histone ribosylation formed by PARP-1 enzyme was quantified at 450 nm using Wallac EnVision™ (PerkinElmer Oy, Turku, Finland).
As to `COc1cc(CN2CCC(=NO)CC2)cc2[nH]c(=O)c3c(c12)NCCC3` [Example 79, 8-{[4-(Hydroxyimino)piperidine-1-yl]methyl}-10-methoxy-1,2,3,4-tetrahydrobenzo[h][1,6]naphthyridine-5(6H)-one trihydrochloride], the half-maximal inhibitory concentration (IC50) came to 180 nM.

Still in this experiment, the particulars now being: PARP-1 enzyme, histone ribosylation, 450 nm; read-out: PARP-1 Inhibitory activity IC50.
`O=c1[nH]c2cc(CNCC(F)(F)F)ccc2c2c1CCCN2` [Example 62, 8-[(2,2,2-Trifuloroethylamino)methyl]-1,2,3,4-tetrahydrobenzo[h][1,6]naphthyridine-5(6H)-one dihydrochloride]: the IC50 is over 4000 nM. Consider `O=c1[nH]c2cc(Cn3ccnc3)ccc2c2c1CCCN2` [Example 64, 8-[(1H-Imidazole-1-yl)methyl]-1,2,3,4-tetrahydrobenzo[h][1,6]naphthyridine-5(6H)-one hydrochloride], for which the IC50 was 540 nM.

Regarding `O=c1[nH]c2cc(Cn3cccc3)ccc2c2c1CCCN2` [Example 65, 8-[(1H-Pyrrole-1-yl)methyl]-1,2,3,4-tetrahydrobenzo[h][1,6]naphthyridine-5(6H)-one hydrochloride], the IC50 is 1540 nM. Take `O=c1[nH]c2cc(CN3CCCC3)ccc2c2c1CCCN2` [Example 67, 8-(Pyrrolidine-1-ylmethyl)-1,2,3,4-tetrahydrobenzo[h][1,6]naphthyridine-5(6H)-one dihydrochloride]: the IC50 is under 1000 nM. On the same count and under the same terms, the value for `CN1CCCc2c1c1ccc(CN3CCCCC3)cc1[nH]c2=O` [Example 69, 1-Methyl-8-(piperidine-1-ylmethyl)-1,2,3,4-tetrahydrobenzo[h][1,6]naphthyridine-5(6H)-one dihydrochloride] was over 4000 nM; that for `CCN(C)Cc1cc(OC)c2c3c(c(=O)[nH]c2c1)CCCN3` [Example 76, 8-{[Ethyl(methyl)amino]methyl}-10-methoxy-1,2,3,4-tetrahydrobenzo[h][1,6]naphthyridine-5(6H)-one] was 50 nM.

`COc1cc(CN(C)CCCl)cc2[nH]c(=O)c3c(c12)NCCC3` [Example 85, 8-{[(2-Chloroethyl)(methyl)amino]methyl}-10-methoxy-1,2,3,4-tetrahydrobenzo[h][1,6]naphthyridine-5(6H)-one dihydrochloride]: the IC50 was 180 nM.

The experiment is the same for the next values; noted with them: dihydrochloride; read-out: PARP-1 Inhibitory activity IC50.
As to `O=c1[nH]c2cc(CN3CCCC3)ccc2c2c1CCCN2` [Example 67, 8-(Pyrrolidine-1-ylmethyl)-1,2,3,4-tetrahydrobenzo[h][1,6]naphthyridine-5(6H)-one dihydrochloride], the IC50 stood at 760 nM.

Still in this experiment, the particulars now being: read-out: PARP-1 Inhibitory activity IC50.
In the case of `CN1CCN(Cc2ccc3c4c(c(=O)[nH]c3c2)CCCN4)CC1` [Example 55, 8-[(4-Methylpiperazine-1-yl)methyl]-1,2,3,4-tetrahydrobenzo[h][1,6]naphthyridine-5(6H)-one trihydrochloride], the IC50 worked out at 1720 nM. As for `CCOC(=O)CCN(C)Cc1ccc2c3c(c(=O)[nH]c2c1)CCCN3` [Example 57, Ethyl-3-{methyl[(5-oxo-1,2,3,4,5,6-hexahydrobenzo[h][1,6]naphthyridine-8-yl)methyl]amino}propanoate dihydrochloride], the IC50 came out at 480 nM. With `CN(CCC(=O)O)Cc1ccc2c3c(c(=O)[nH]c2c1)CCCN3` [Example 58, 3-{Methyl[(5-oxo-1,2,3,4,5,6-hexahydrobenzo[h][1,6]naphthyridine-8-yl)methyl]amino}propanoic acid dihydrochloride], the IC50 is 920 nM. In the case of `CC(C)N(C)Cc1ccc2c3c(c(=O)[nH]c2c1)CCCN3` [Example 59, 8-{[Isopropyl(methyl)amino]methyl}-1,2,3,4-tetrahydrobenzo[h][1,6]naphthyridine-5(6H)-one dihydrochloride], the IC50 is 190 nM. For the compound `COCCN(C)Cc1ccc2c3c(c(=O)[nH]c2c1)CCCN3` [Example 60, 8-{[(2-Methoxyethyl)(methyl)amino]methyl}-1,2,3,4-tetrahydrobenzo[h][1,6]naphthyridine-5(6H)-one dihydrochloride], the IC50 came out at 120 nM. As for `N#CCNCc1ccc2c3c(c(=O)[nH]c2c1)CCCN3` [Example 63, 2-[(5-Oxo-1,2,3,4,5,6-hexahydrobenzo[h][1,6]naphthyridine-8-yl)methylamino]acetonitrile dihydrochloride], the IC50 was found to be 1020 nM.

With `CCN(CC)Cc1ccc2c3c(c(=O)[nH]c2c1)CCCN3C` [Example 68, 8-[(Diethylamino)methyl]-1-methyl-1,2,3,4-tetrahydrobenzo[h][1,6]naphthyridine-5(6H)-one dihydrochloride], the IC50 amounted to 1190 nM. Turning to `CN1CCCc2c1c1ccc(CN3CCOCC3)cc1[nH]c2=O` [Example 70, 1-Methyl-8-(morpholinomethyl)-1,2,3,4-tetrahydrobenzo[h][1,6]naphthyridine-5(6H)-one dihydrochloride], the IC50 is 1090 nM. On to `CCN(C)Cc1ccc2c3c(c(=O)[nH]c2c1)CCCN3C` [Example 71, 8-{[Ethyl(methyl)amino]methyl}-1-methyl-1,2,3,4-tetrahydrobenzo[h][1,6]naphthyridine-5(6H)-one dihydrochloride], for which the IC50 was 3000 nM. On the same count and under the same terms, the value for `CCNCc1cc(OC)c2c3c(c(=O)[nH]c2c1)CCCN3` [Example 75, 8-[(Ethylamino)methyl]-10-methoxy-1,2,3,4-tetrahydrobenzo[h][1,6]naphthyridine-5(6H)-one dihydrochloride] was 50 nM; that for `COc1cc(CN2CCCC2)cc2[nH]c(=O)c3c(c12)NCCC3` [Example 77, 10-Methoxy-8-(pyrrolidine-1-ylmethyl)-1,2,3,4-tetrahydrobenzo[h][1,6]naphthyridine-5(6H)-one dihydrochloride] was 50 nM. Same read-out and setting: the value for `COc1cc(CN2CCC(=O)CC2)cc2[nH]c(=O)c3c(c12)NCCC3` [Example 78, 10-Methoxy-8-[(4-oxopiperidine-1-yl)methyl]-1,2,3,4-tetrahydrobenzo[h][1,6]naphthyridine-5(6H)-one dihydrochloride] was 110 nM.

Take `CON=C1CCN(Cc2cc(OC)c3c4c(c(=O)[nH]c3c2)CCCN4)CC1` [Example 80, 10-Methoxy-8-[(4-(methoxyimino)piperidine-1-yl)methyl]-1,2,3,4-tetrahydrobenzo[h][1,6]naphthyridine-5(6H)-one trihydrochloride]: the IC50 was found to be 140 nM. Take `COCCN(C)Cc1cc(OC)c2c3c(c(=O)[nH]c2c1)CCCN3` [Example 81, 10-Methoxy-8-{[(2-methoxyethyl)(methyl)amino]methyl}-1,2,3,4-tetrahydrobenzo[h][1,6]naphthyridine-5(6H)-one dihydrochloride]: the IC50 came to 110 nM. `COc1cc(CN2CC=CC2)cc2[nH]c(=O)c3c(c12)NCCC3` [Example 82, 8-[(2,5-Dihydro-1H-pyrrole-1-yl)methyl]-10-methoxy-1,2,3,4-tetrahydrobenzo[h][1,6]naphthyridine-5(6H)-one dihydrochloride]: the IC50 was 60 nM.

Take `COc1cc(CN(C)CCOC(C)C)cc2[nH]c(=O)c3c(c12)NCCC3` [Example 83, 8-{[(2-Isopropoxyethyl)(methyl)amino]methyl}-10-methoxy-1,2,3,4-tetrahydrobenzo[h][1,6]naphthyridine-5(6H)-one dihydrochloride]: the IC50 is 320 nM. Consider `COc1cc(CN2CCCCC2)cc2[nH]c(=O)c3c(c12)NCCC3` [Example 84, 10-Methoxy-8-(piperidine-1-ylmethyl)-1,2,3,4-tetrahydrobenzo[h][1,6]naphthyridine-5(6H)-one dihydrochloride], for which the IC50 was found to be 150 nM.
